Results: patent US20120214802A1, “PYRROLIDINE COMPOUNDS WHICH INHIBIT BETA-SECRETASE ACTIVITY AND METHODS OF USE THEREOF” (priority 2009, published 2012)
pIC50, pKi: −log10 of the molar value. Where “and” joins values, the source holds several entries; their conditions need not be identical. Equal values may be shown once. Read-outs that look alike come from different tables or passages of the source.

Tests used:
[1] = molecular target: T1, memapsin 2 (Cricetulus griseus, UniProt G3IAK4); test: Cellular Aβ IC50 determination (Aβ40 sandwich ELISA); type: cell-based, Chinese hamster; conditions: CHO cells over-expressing human APP695 with London and Swedish mutations, 24 h, read-out: M2 IC50
T1 construct: endogenous in cells; host or cells: Chinese hamster ovary cells over-expressing human APP695 (London + Swedish)
T1 sequence (G3IAK4 22-501): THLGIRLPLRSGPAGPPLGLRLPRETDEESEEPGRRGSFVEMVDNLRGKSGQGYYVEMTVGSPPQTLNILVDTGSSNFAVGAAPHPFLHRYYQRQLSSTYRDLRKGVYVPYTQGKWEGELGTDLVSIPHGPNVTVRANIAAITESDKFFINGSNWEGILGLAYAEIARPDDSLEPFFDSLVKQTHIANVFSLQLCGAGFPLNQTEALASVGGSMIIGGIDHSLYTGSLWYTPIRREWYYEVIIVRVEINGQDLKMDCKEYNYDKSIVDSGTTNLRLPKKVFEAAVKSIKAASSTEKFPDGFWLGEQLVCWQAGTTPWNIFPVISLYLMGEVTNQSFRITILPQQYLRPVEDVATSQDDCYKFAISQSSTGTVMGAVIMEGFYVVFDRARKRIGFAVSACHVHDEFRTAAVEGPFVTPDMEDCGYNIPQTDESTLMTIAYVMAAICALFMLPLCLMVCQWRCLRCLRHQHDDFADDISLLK
Summary of the method: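 CHO cells overexpressing human APP695 (London and Swedish mutations) treated 48 h post-seeding with serially diluted compounds (top near 4 μM, 0.4% DMSO), 24 h at 37° C, 5% CO2. Medium Aβ40 measured by sandwich ELISA; levels relative to control fitted to 4-parameter IC50 model.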

[2] = Hepatic intrinsic clearance in liver microsomes; type: in vitro ADME; conditions: human, pH 7.4, human liver microsomes
Procedure: To 500 μl of 200 mM Na^+K^+phosphate buffer (pH 7.4), 100 μl of 1 mM EDTA solution was added followed by 100 μl of 2 mg protein/ml human liver microsomes. A 10 μl aliquot of test compound (20 mM stock in 50% acetonitrile) was diluted further with 40 μl of H2O (total assay volume […]. Assay mixture is incubated for 5 minutes at 37° C. The assay was initiated by addition of 250 μl of 4 mM NADPH solution. Incubation was continued at 37° C. Separate reaction mixtures were prepared for 0, 5, 10, 20, and 30 min durations. Individual reactions were halted by addition of 150 μl of 100% acetonitrile. Internal standard (10 μl of 100 ng/ml diazepam solution) was added. Concentration of the test compound in each separate reaction was measured using LC/MS/MS and a standard curve for the test compound according to standard procedures.
The hepatic intrinsic clearance in liver microsome was determined by the following procedure described by Davies and Morris (Davies, B. and Morris, T. (19930) Physiological parameters in laboratory animals and humans. Pharm Res. 10:1093-1095) detailing the relationship of in vitro clearance to physiological parameters in animals and human subjects.
The amount of compound remaining at each time point was expressed relative to the amount present in the initial (0 min) incubation. The relationship of relative amount vs. time was used to determine the half life of the compound in the microsome assay. The concentration independent rate constant, k1, was determined from rectangular hyperbolic fit:
where T is time (in minutes), from the relationship of relative amount vs. time. Alternatively, k1 was determined from a transform of the equation, where
Conversion to in vivo clearance was obtained from the relation (Davies and Morris, 1993):
where v=velocity of metabolism, [S] is the concentration of the compound, and volumes are expressed in mL.

[3] = molecular target: T2, CYP3A4 (Homo sapiens, UniProt P08684); test: CYP3A4 inhibition (midazolam metabolism in human liver microsomes); type: in vitro ADME; conditions: substrate midazolam
T2 construct: host or cells: human liver microsomes
T2 sequence (P08684 whole entry): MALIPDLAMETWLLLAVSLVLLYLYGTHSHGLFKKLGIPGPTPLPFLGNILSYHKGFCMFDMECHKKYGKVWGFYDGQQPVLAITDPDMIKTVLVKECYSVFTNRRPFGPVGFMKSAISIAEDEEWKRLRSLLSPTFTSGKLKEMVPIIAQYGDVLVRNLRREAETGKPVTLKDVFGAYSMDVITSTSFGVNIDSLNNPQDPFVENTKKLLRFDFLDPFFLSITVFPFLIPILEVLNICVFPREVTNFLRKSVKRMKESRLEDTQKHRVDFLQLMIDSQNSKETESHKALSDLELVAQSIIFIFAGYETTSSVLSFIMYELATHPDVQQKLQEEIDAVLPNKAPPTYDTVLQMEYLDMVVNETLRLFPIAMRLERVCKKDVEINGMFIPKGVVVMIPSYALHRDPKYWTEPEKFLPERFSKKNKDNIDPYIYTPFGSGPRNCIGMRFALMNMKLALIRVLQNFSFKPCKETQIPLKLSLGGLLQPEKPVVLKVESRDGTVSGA
Procedure: To evaluate the drug-drug interaction potential for compounds, the potency to inhibit the major metabolic cytochrome CYP450 isoform 3A4 was assessed. The inhibition constant Ki was determined for inhibition of the metabolism of midazolam, a CYP3A4 substrate.
CYP3A4 Ki assays were performed following a recently published protocol with slight modifications (Di, L., Kerns, E. H., Li, S. Q., and Carter, G. T. (2007) Comparison of cytochrome P450 inhibition assays for drug discovery using human liver microsomes with LC-MS, rhCYP450 isozymes with fluorescence, and double cocktail with LC-MS. International Journal of Pharmaceutics 335: 1-11). The P450 inhibition assay was performed in 96-well plates at 37.2° C. in a shaking incubator. The compounds were diluted from 5 mM stocks in 100% DMSO and incubated at seven final concentrations from 0.078 to 10 μM (0.1% DMSO in each final incubation), with human liver microsomes (HLM) at a final protein concentration of 0.1 mg/mL protein and a substrate concentration ranging from 1.25 to 10 μM.
The assay was standardized for both phosphate buffer (100 mM, pH 7.4) and the NADPH regenerating system (MgCl2, 3.3 mM; G6P, 3.3 mM; G6PD, 1 U/ml; NADP+, 1.3 mM). Eight replicate control samples (0.1% DMSO, no compound) were prepared. Assays (200 μL) were set up by mixing HLM+substrate stock, 10 μL of test article in 2% DMSO, and the substrate before initiating the reaction with the addition of the regenerating system mixture. Reactions were quenched following incubation for 20, 30 and 40 minutes as described following.
After incubation for the specified time in a humidified shaking incubator, 20 μL of the reaction mixture was removed and the reactions were terminated by adding 200 μL of cold acetonitrile. Samples were centrifuged at 1000×g for 15 minutes in Solvinert filter plate. The receptor plate was dried via speed vacuum at 40° C. The sample was reconstituted with a reconstitution buffer composed of 10% acetonitrile, 10% DMSO, 80% H2O with an internal standard added at a concentration of 100 ng/ml. MS-Analysis was completed using LC-MS/MS. Formation of 1′-hydroxymidazolam was measured by monitoring a specific SRM (342>203) transition for the CYP3A4 metabolite.
Data were expressed as the relative quantity of midazolam metabolite relative to control incubations. Initial velocities were obtained by multiplying the relative quantity by the initial substrate concentration and dividing by the incubation duration. Data were transformed to inverse of inivital velocity and expressed vs. inhibitor concentration [I] for determination of Ki by the Dixon method (Dixon, M. (1953) Biochemical Journal 55: 170-171) using where intercept [I]=−Ki was determined at multiple substrate concentrations.

[4] = molecular target: memapsin 2 (Homo sapiens, UniProt P56817); test: Inhibition of memapsin 2 beta-secretase activity (fluorogenic substrate FS-2); type: biochemical; conditions: pH 4, 37° C., read-out: M2 Ki
Chain of memapsin 2 (Homo sapiens, UniProt P56817) (P56817 46-501): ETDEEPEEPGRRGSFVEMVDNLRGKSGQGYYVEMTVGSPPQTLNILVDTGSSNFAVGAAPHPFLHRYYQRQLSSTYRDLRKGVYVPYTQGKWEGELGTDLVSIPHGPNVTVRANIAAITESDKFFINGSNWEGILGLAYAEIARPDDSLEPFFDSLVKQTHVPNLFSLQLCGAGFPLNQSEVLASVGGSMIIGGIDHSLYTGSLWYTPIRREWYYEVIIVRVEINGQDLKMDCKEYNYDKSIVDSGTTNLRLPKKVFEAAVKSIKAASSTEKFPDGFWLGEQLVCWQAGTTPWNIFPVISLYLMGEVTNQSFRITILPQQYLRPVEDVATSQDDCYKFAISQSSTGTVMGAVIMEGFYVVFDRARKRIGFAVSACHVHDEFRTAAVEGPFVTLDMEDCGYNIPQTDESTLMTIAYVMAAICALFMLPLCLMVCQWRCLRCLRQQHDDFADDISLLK
Summary of the method: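 Memapsin 2 pre-incubated with compound for 20 min at pH 4, 37° C. Reaction started with fluorogenic substrate FS-2, […], derived from Swedish-variant APP beta-secretase site; inhibition measured from fluorescence.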

[5] = in vitro clearance, read-out: HLM CL

| Structure (SMILES) | pIC50 [1] | CLint scaled at 200 μM [2, 5] [mL/min/kg] | pKi ([3]; read-out: CYP 3A4Ki) | pKi [4] | CLint scaled at 200 μM ([2]; read-out: hepatic intrinsic clearance in liver microsomes (HLMCL)) [mL/min/kg] | pKi [3] |
| --- | --- | --- | --- | --- | --- | --- |
| Cc1cc(C(=O)N[C@@H](Cc2ccccc2)[C@H](O)[C@H]2CCCN2)cc(C(=O)N2CCC[C@@H]2c2nc(C)co2)c1 [1-8, N-((1R,2S)-1-hydroxy-3-phenyl-1-((R)-pyrrolidin-2-yl)propan-2-yl)-3-methyl-5-((R)-2-(4-methyloxazol-2-yl)pyrrolidine-1-carbonyl)benzamide] | < 6.00 | < 400 | < 5.00 | 6.12 to 6.60 |  |  |
| Cc1csc(CN(C)C(=O)c2cccc(C(=O)N[C@@H](Cc3ccccc3)[C@H](O)[C@H]3C[C@@H](OCc4ccccc4)CN3)c2)n1 [1-9, N1-((1R,2S)-1-((2R,4R)-4-(benzyloxy)pyrrolidin-2-yl)-1-hydroxy-3-phenylpropan-2-yl)-N3-methyl-N3-((4-methylthiazol-2-yl)methyl)isophthalamide] | > 6.30 | < 400 | 5.30 to 6.00 | > 6.60 |  |  |
| C[C@@H](NC(=O)c1cc(C(=O)N[C@@H](Cc2ccccc2)[C@H](O)[C@H]2CCCN2)cc(N(C)S(C)(=O)=O)c1)c1ccccc1 [1-11, N1-((1R,2S)-1-hydroxy-3-phenyl-1-((R)-pyrrolidin-2-yl)propan-2-yl)-5-(N-methylmethylsulfonamido)-N3-((R)-1-phenylethyl)isophthalamide] | > 6.30 | < 400 | < 5.00 | > 6.60 |  |  |
| Cc1csc(CN(C)C(=O)c2cc(C(=O)N[C@@H](Cc3ccccc3)[C@H](O)[C@H]3CCCN3)cc(-n3cccc3)c2)n1 [1-13, N1-((1R,2S)-1-hydroxy-3-phenyl-1-((R)-pyrrolidin-2-yl)propan-2-yl)-N3-methyl-N3-((4-methylthiazol-2-yl)methyl)-5-(1H-pyrrol-1-yl)isophthalamide] | 6.00 to 6.30 | < 400 | 5.00 to 5.30 | > 6.60 |  |  |
| Cc1csc([C@H]2CCCN2C(=O)c2cc(C(=O)N[C@@H](Cc3ccccc3)[C@H](O)[C@H]3CCCN3)cc(C(F)F)c2)n1 [1-14, 3-(difluoromethyl)-N-((1R,2S)-1-hydroxy-3-phenyl-1-((R)-pyrrolidin-2-yl)propan-2-yl)-5-((R)-2-(4-methylthiazol-2-yl)pyrrolidine-1-carbonyl)benzamide] | > 6.30 | < 400 | 5.30 to 6.00 | > 6.60 |  |  |
| Cc1csc(CN(C)C(=O)c2cc(C(=O)N[C@@H](Cc3ccccc3)[C@H](O)[C@H]3CCCN3)cc(-c3ncco3)c2)n1 [1-15, N1-((1R,2S)-1-hydroxy-3-phenyl-1-((R)-pyrrolidin-2-yl)propan-2-yl)-N3-methyl-N3-((4-methylthiazol-2-yl)methyl)-5-(oxazol-2-yl)isophthalamide] | > 6.30 | < 400 | 5.00 to 5.30 | > 6.60 |  |  |
| Cc1csc([C@H]2CCCN2C(=O)c2cc(C(=O)N[C@@H](Cc3ccccc3)[C@H](O)[C@H]3CCCN3)cc(-n3cccc3)c2)n1 [1-16, N-((1R,2S)-1-hydroxy-3-phenyl-1-((R)-pyrrolidin-2-yl)propan-2-yl)-3-((R)-2-(4-methylthiazol-2-yl)pyrrolidine-1-carbonyl)-5-(1H-pyrrol-1-yl)benzamide] | 6.00 to 6.30 | < 400 | 5.30 to 6.00 | > 6.60 |  |  |
| Cc1coc([C@H]2CCCN2C(=O)c2cc(C(=O)N[C@@H](Cc3ccccc3)[C@H](O)[C@H]3CCCN3)cc(-c3ncco3)c2)n1 [1-17, N-((1R,2S)-1-hydroxy-3-phenyl-1-((R)-pyrrolidin-2-yl)propan-2-yl)-3-((R)-2-(4-methyloxazol-2-yl)pyrrolidine-1-carbonyl)-5-(oxazol-2-yl)benzamide] | > 6.30 | < 400 | < 5.00 | > 6.60 |  |  |
| Cc1coc([C@H]2CCCN2C(=O)c2cccc(C(=O)N[C@@H](Cc3ccccc3)[C@H](O)[C@H]3C[C@@H](OCc4ccccc4)CN3)c2)n1 [1-18, N-((1R,2S)-1-((2R,4R)-4-(benzyloxy)pyrrolidin-2-yl)-1-hydroxy-3-phenylpropan-2-yl)-3-((R)-2-(4-methyloxazol-2-yl)pyrrolidine-1-carbonyl)benzamide] | > 6.30 | < 400 | < 5.00 | ~7.30 and > 6.60 and 7.30 | ~337 | 4.94 |
| Cc1csc([C@H]2CCCN2C(=O)c2cc(F)cc(C(=O)N[C@@H](Cc3ccccc3)[C@H](O)[C@H]3CCCN3)c2)n1 [1-32, 3-fluoro-N-((1R,2S)-1-hydroxy-3-phenyl-1-((R)-pyrrolidin-2-yl)propan-2-yl)-5-((R)-2-(4-methylthiazol-2-yl)pyrrolidine-1-carbonyl)benzamide] | < 6.00 | < 400 | 5.00 to 5.30 | > 6.60 |  |  |
| Cc1csc([C@H]2CCCN2C(=O)c2cccc(C(=O)N[C@@H](Cc3ccccc3)[C@H](O)[C@H]3CCCN3)c2)n1 [1-40, N-((1R,2S)-1-hydroxy-3-phenyl-1-((R)-pyrrolidin-2-yl)propan-2-yl)-3-((R)-2-(4-methylthiazol-2-yl)pyrrolidine-1-carbonyl)benzamide] | 6.00 to 6.30 | < 400 | 5.00 to 5.30 | > 6.60 |  |  |
| Cc1csc([C@H]2CCCN2C(=O)c2cncc(C(=O)N[C@@H](Cc3ccccc3)[C@H](O)CNCc3cc(Cl)nc(N(C)C)c3)c2)n1 [2-1, N-((2S,3R)-4-((2-chloro-6-(dimethylamino)pyridin-4-yl)methylamino)-3-hydroxy-1-phenylbutan-2-yl)-5-((R)-2-(4-methylthiazol-2-yl)pyrrolidine-1-carbonyl)nicotinamide, reference compound] | > 6.30 | > 700 |  | > 6.60 |  |  |
| C=C(C)c1cccc(CNC[C@@H](O)[C@H](Cc2ccccc2)NC(=O)c2cccc(C(=O)N3CCC[C@@H]3c3nc(C)co3)c2)c1 [2-6, N-((2S,3R)-3-hydroxy-1-phenyl-4-(3-(prop-1-en-2-yl)benzylamino)butan-2-yl)-3-((R)-2-(4-methyloxazol-2-yl)pyrrolidine-1-carbonyl)benzamide, reference compound] | > 6.30 | > 700 |  | > 6.60 |  |  |
